Molecular target: T1, human 5-HT4(a) (Homo sapiens, UniProt Q13639)
T1 construct: host or cells: GeneBIAzer HTR4-CRE-bla CHO-K1 cells
Experiment: Evaluation of agonistic activity in CHO-K1 cells expressing human 5-HT4(a) (GeneBIAzer HTR4-CRE-bla CHO-K1 cells, beta-lactamase fluorescence ratio, EC50 from 8 concentrations)
Format: cell-based
How it was run: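 HTR4-CRE-bla CHO-K1 cells (10^4 per well, overnight in 1% FBS medium) exposed to compound for 5 h, then beta-lactamase substrate 2 h in the dark. Fluorescence ratio at 465/535 nm after 410 nm excitation; EC50 by non-linear regression over 8 concentrations.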

T1 sequence (Q13639 1-387 isoform Q13639-2): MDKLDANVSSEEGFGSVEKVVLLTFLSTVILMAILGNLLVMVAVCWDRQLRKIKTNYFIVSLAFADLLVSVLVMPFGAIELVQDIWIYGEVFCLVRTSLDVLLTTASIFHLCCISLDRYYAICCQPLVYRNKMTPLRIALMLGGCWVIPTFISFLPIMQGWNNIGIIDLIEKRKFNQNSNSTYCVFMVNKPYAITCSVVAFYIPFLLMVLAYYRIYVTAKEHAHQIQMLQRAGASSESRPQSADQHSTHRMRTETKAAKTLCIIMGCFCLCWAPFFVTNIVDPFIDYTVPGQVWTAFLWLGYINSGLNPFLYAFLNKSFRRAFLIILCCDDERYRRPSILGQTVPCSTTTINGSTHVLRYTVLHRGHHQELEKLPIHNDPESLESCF

In the case of CCCCc1cc(N2CCC[C@@H](N)C2)nc(Nc2ccc(C)c([N+](=O)[O-])c2)n1 [Example 339, (R)-4-(3-aminopiperidin-1-yl)-6-butyl-N-(4-methyl-3-nitrophenyl)pyrimidin-2-amine], the EC50 is reported as 0.017 nM.
CCCCc1cc(N2CCC[C@@H](N)C2)nc(Nc2ccc(N)c(C(F)(F)F)c2)n1 [Example 340, (R)—N^1-[4-(3-aminopiperidin-1-yl)-6-butylpyrimidin-2-yl]-3-(trifluoromethyl)benzene-1,4-diamine] was tested, and the EC50 was 0.112 nM.
CCCCc1cc(N2CCC[C@@H](N)C2)nc(Nc2cc(N)cc(C#N)c2)n1 [Example 342, (R)-3-amino-5-{[4-(3-aminopiperidin-1-yl)-6-butylpyrimidin-2-yl]amino}benzonitrile] gave an EC50 of 0.0041 nM.
Molecule CCCCc1cc(N2CCC[C@@H](N)C2)nc(Nc2ccc(C)c(C(F)(F)F)c2)n1 [Example 343, (R)-4-(3-aminopiperidin-1-yl)-6-butyl-N-[4-methyl-3-(trifluoromethyl)phenyl]pyrimidin-2-amine] has an EC50 of 0.034 nM.
CCCCc1cc(N2CCC[C@@H](N)C2)nc(Nc2ccc(C)c(F)c2)n1 [Example 344, (R)-4-(3-aminopiperidin-1-yl)-6-butyl-N-(3-fluoro-4-methylphenyl)pyrimidin-2-amine] showed an EC50 of 0.448 nM.
With CCCCc1cc(N2CCC[C@@H](N)C2)nc(Nc2ccc(C)c(OC)c2)n1 [Example 345, (R)-4-(3-aminopiperidin-1-yl)-6-butyl-N-(3-methoxy-4-methylphenyl)pyrimidin-2-amine] the EC50 was 0.08 nM.
Molecule CCCCc1cc(N2CCC[C@@H](N)C2)nc(Nc2ccc(C)c(N)c2)n1 [Example 346, (R)—N^1-[4-(3-aminopiperidin-1-yl)-6-butylpyrimidin-2-yl]-4-methylbenzene-1,3-diamine] has an EC50 of 0.135 nM.
With CCCCc1cc(N2CCC[C@@H](N)C2)nc(Nc2ccc(C)c(C)c2)n1 [Example 347, (R)-4-(3-aminopiperidin-1-yl)-6-butyl-N-(3,4-dimethylphenyl)pyrimidin-2-amine] the EC50 was 0.391 nM.
CCCCc1cc(N2CCC[C@@H](N)C2)nc(Nc2ccc(F)c(C(F)(F)F)c2)n1 [Example 348, (R)-4-(3-aminopiperidin-1-yl)-6-butyl-N-[4-fluoro-3-(trifluoromethyl)phenyl]pyrimidin-2-amine] gave an EC50 of 0.102 nM.
In the case of CCCCc1cc(N2CCC[C@@H](N)C2)nc(Nc2ccc(F)c(N)c2)n1 [Example 349, (R)—N^1-[4-(3-aminopiperidin-1-yl)-6-butylpyrimidin-2-yl]-4-fluorobenzene-1,3-diamine], the EC50 is reported as 0.014 nM.
CCCCc1cc(N2CCC[C@@H](N)C2)nc(Nc2ccc(N)c(C#N)c2)n1 [Example 350, (R)-2-amino-5-{[4-(3-aminopiperidin-1-yl)-6-butylpyrimidin-2-yl]amino}benzonitrile] gave an EC50 of 0.028 nM.
With CCCCc1cc(N2CCC[C@@H](N)C2)nc(Nc2ccc(N)cc2)n1 [Example 352, (R)—N^1-[4-(3-aminopiperidin-1-yl)-6-butylpyrimidin-2-yl]benzene-1,4-diamine] the EC50 was 0.029 nM.
With CCCCc1cc(N2CCC[C@@H](N)C2)nc(Nc2ccc(Cl)c([N+](=O)[O-])c2)n1 [Example 353, (R)-4-(3-aminopiperidin-1-yl)-6-butyl-N-(4-chloro-3-nitrophenyl)pyrimidin-2-amine] the EC50 was 0.337 nM.

— patent publication US9850227B2 (YUHAN CORPORATION, priority 2011, dated 2017)
